These results are taken from US7371763B2, “Inhibition of raf kinase using quinolyl, isoquinolyl or pyridyl ureas” (Bayer Pharmaceuticals Corporation, priority 2001, dated 2008).

Usually melting point stands for the temperature, or range, at which the solid turns liquid.

For `CC(C)(C)c1ccnc(NC(=O)Nc2ccc(Oc3ccc(Cl)cc3)cc2)c1` [Entry 8, N-(4-tert-Butylpyridyl)-N′-(4-(4-chlorophenoxy)phenyl) urea], the melting point lay within 198 to 199 °C.
